Assay results published in patent publication US12553882B2, “Use of PAK4 and CRTC1 for treatment or diagnosis of brain degenerative disease” (CHUNGBUK NATIONAL UNIVERSITY INDUSTRY-ACADEMIC COOPERATION …, priority 2017, dated 2026).

How the values were obtained:
[1] = tested on: TH-positive DA neurons; assay: PF-3758309 stereotaxic injection into the SN, analysis of TH-positive neurons and fibers; format: in vivo, rat; settings: PF-3758309 injected into the SN (substantia nigra)
Procedure: Mice were anesthetized with chloral hydrate (360 mg/kg, intraperitoneal [i.p.] injection) and then placed in a stereotaxic instrument (Kopf Instruments, Tujunga, CA, USA). The injection site coordinates in the right SN were 5.3 mm AP, 2.0 mm ML and 7.6 mm DV, from the bregma. Then, PF-3758309 (0.5 μg) was injected using a Hamilton syringe needle (33-gauge needle). In this case, the flow rate of the injection solution (2 ul) was allowed to be at 0.25 ul/min. After the injection, the syringe needle was maintained as it is for 5 more minutes to suppress the reflux of the solution. […]
Human brain tissue slices embedded with paraffin were deparaffinized with xylene. […] Samples were reacted with Alexa 488- or Alexa 594-conjugated secondary antibodies for fluorescence microscopic analysis. […] For Nissl-staining, SN tissue was fixed on a gelatin-coated slide and dried at room temperature for 1 hour, stained with 0.5% cresyl violet, dehydrated, covered with a cuff slip and analyzed using a bright field microscopy (Nikon).
The unbiased stereological analysis of the total number of TH+ neurons was performed using an optical fractionator method and Stereo Investigator software (MBF Bioscience, Williston, VT). The method is an assay which is not influenced by reference volume (SNpc) or size of counted elements (neurons). The total number of neurons was calculated by Optical Fractionator Equation. […]

[2] = tested on: rat PAK4; assay: Knock-down of PAK4 by lentiviral shRNA; format: in vivo; settings: lentiviral rat PAK4 hCMV-TurboGFP shRNA
From the text: Lentiviral rat PAK4 hCMV-TurboGFP shRNAs were purchased from Dharmacon and Open Biosystems. […] In this case, lentiviral shRNA control particles (#S-005000-01) were used as a control.
Protein extracts were obtained by conventional protein extraction methods, and immunoblots were visualized using HRP-conjugated secondary antibodies to IgG and chemiluminescent substrate (SuperSignal Ultra; Pierce). For quantitative analysis of protein levels, each band density of the immunoblots was quantitatively analyzed using the National Institutes of Health ImageJ software (National institutes of Health).
As a method for checking the action of PAK4 in Parkinson's disease, the present inventors injected a lent viral green fluorescent protein (GFP) small hairpin control (shCtrl) or lentiviral-GFP-shPAK4 construct into the right striatum of the rat brain to analyze the role of PAK4 in Parkinson's disease.

[3] = tested on: rat CRTC1; assay: Knock-down of CRTC1 by lentiviral shRNA, 6-OHDA rat model; format: in vivo; settings: lentiviral rat CRTC1 hCMV-TurboGFP shRNA

Molecule	knock-down of the expression of PAK4 [2]	knock-down of the expression of CRTC1 [3]	also measured
Cc1nc(Nc2[nH]nc3c2CN(C(=O)N[C@H](CN(C)C)c2ccccc2)C3(C)C)c2sccc2n1 [PF-3758309]	–	–	TH-positive DA neurons [1]: decreased
SH-082018-01: lentiviral rat PAK4 shRNA, TTACGCAAGTCCATCTTCT, Dharmacon and Open Biosystems	effectively knocked down	–	–
SH-082018-02: lentiviral rat PAK4 shRNA, TGATCGAAGCCTGTGTGTA, Dharmacon and Open Biosystems	effectively knocked down	–	–
SH-111776-01: lentiviral rat CRTC1 shRNA, CACGATATACTCTGTCCAC	–	effectively knocked down	–
SH-111776-02: lentiviral rat CRTC1 shRNA, TCGCTAAATTTCCGCGGAT	–	effectively knocked down	–
